Common to all, as to assay type: cell-based, human
The subject of experiment [1] is QSOX1-a protein. Put plainly: QSOX1-a protein abundance by Western blotting in MDA-MB-231 cells. Conditions: 10 μM. As to the method:
(§1) Measuring Protein Abundance by Western Blotting. MDA-MB-231 cells were seeded in 6-well plates at ˜50% confluency and treated with vehicle (DMSO) or compound as described above but without EU treatment. After 16 h, the compound-containing growth medium was removed and replaced with fresh medium containing compound (re-dosing). After an additional 32 h incubation, total protein was harvested (48 h total treatment time). The cells were then washed twice with cold 1×DPBS, and total protein was harvested by using Mammalian Protein Extraction Reagent (M-PER, Thermo Scientific) per the manufacturer's protocol. Protein concentration was quantified by using BCA Protein Assay Kit (Pierce), and the proteins were separated by using 10% SDS-polyacrylamide gel (20 μg protein per lane). After gel electrophoresis in 1× Running Buffer (50 mM MOPS, 50 mM Tris-base, pH 7.5, 1 mM EDTA, and 0.1% (w/v) SDS) at 120 V for 1 h, the proteins were transferred to a PVDF membrane (0.45 μm, Cytiva) at 300 mA for 1 h in 1× Transfer Buffer (25 mM Bicine, 25 mM Tris-base, pH 7.5, 1:4 MeOH:H2O). The membrane was blocked with 5% (w/v) non-fat dry milk in TBST (1×TBS containing 0.1% (v/v) Tween-20) for 1 h at room temperature. The primary antibody for QSOX1 protein (Cat #10092-932, Proteintech) or SQSTM1 protein (Cat #ab 109012, Abcam) was incubated with 1:1000 dilutions at 4° C. for 16 h. The membrane was then washed by TBST four times (5 min each) and then incubated with the secondary antibody (Cat #7074S, Cell Signaling) with 1:5000 dilution at room temperature for 2 h. The membrane was washed with TBST four times (5 min each) and imaged by using a SuperSignal West Pico Chemiluminescent Substrate (Pierce) per manufacturer's protocol. The blot was stripped by washing the membrane in 1× Stripping Buffer (200 mM glycine, pH 2.2, 4 mM SDS, 1% (v/v) Tween 20) at room temperature for 30 min, followed by blocking again as described above. […] Expression levels of proteins were quantified based on band intensity by using ImageJ. […]

Experiment [2] concerns SQSTM1 protein. In words: SQSTM1 protein abundance by Western blotting in MDA-MB-231 cells. Conditions: F1-Amide 20 μM, F1-RIBOTAC 10 μM, 48 h. The procedure: as §1, with “temperature.” for “temperature. The primary antibody for QSOX1 protein (Cat #10092-932, Proteintech) or SQSTM1 protein (Cat #ab 109012, Abcam) was incubated with 1:1000 dilutions at 4° C. for 16 h. The membrane was then washed by TBST four times (5 min each) and then incubated with the secondary antibody (Cat #7074S, Cell Signaling) with 1:5000 dilution at room temperature for 2 h. The membrane was washed with TBST four times (5 min each) and imaged by using a SuperSignal West Pico Chemiluminescent Substrate (Pierce) per manufacturer's protocol. The blot was stripped by washing the membrane in 1× Stripping Buffer (200 mM glycine, pH 2.2, 4 mM SDS, 1% (v/v) Tween 20) at room temperature for 30 min, followed by blocking again as described above.”

Experiment [3] concerns MDA-MB-231 cells. Put plainly: Invasion assay. The note with it: 10 μM, 48 h. The procedure: Invasion Assay. MDA-MB-231 cells were seeded in […] and treated with compound or transfected by ASO for 48 h as described in Cell Culture. After treatment for 48 h, the medium was replaced with fresh medium that contains same concentration of compound but lacking FBS for 8 h (serum starvation). ThinCert (GBO) 24-well inserts with 8 μm pores were coated with 100 μL of 0.5 mg/mL Matrigel (Fisher Scientific: CB40234) per well, and then cells were added into the insert (50,000 cells per well). Fresh growth medium with FBS was added to a 24-well plate (600 μL each well), and the inserts containing cells were placed on the top, allowing medium to cover the bottom of the insert. After 16 h, all medium was removed, and cells were washed by 1×DPBS twice. Cells were then fixed with 3% (w/v) paraformaldehyde (PFA) in 1×DPBS at room temperature for 30 min, followed by staining with Crystal Violet (10 mg/mL; 4:1H2O:MeOH) at room temperature for 20 min. A cotton swab was used to gently remove non-invasive cells on sitting on top of the Matrigel. The inserts were then imaged under a regular optical microscope (3 views per well), and the number of invasive cells were counted manually.

Results on one compound are retold here after US20250346943A1, “DEGRADER COMPOUNDS OF QSOX1 mRNA” (UNIVERSITY OF FLORIDA RESEARCH FOUNDATION, INCORPORATED, priority 2022, published 2025).

Molecules are shown by their SMILES.

`CCOC(=O)C1=C(Nc2ccccc2)S/C(=C\c2ccc(OCCOCCOCCOCCNC(=O)CCC(=O)N(C)[C@H]3CC[C@@H](c4ccc(Cl)c(Cl)c4)c4ccccc43)c(O)c2)C1=O` [Compound F1-RIBOTAC]: the “reduction of QSOX1-a protein abundance” value in experiment [1] is roughly 35%. Moreover, the “effect on SQSTM1 protein levels” value in experiment [2] was “Neither”. In experiment [3], the “reduction of the number of invasive MDA-MB-231 cells” value was roughly 40%.
